Assay results reported in patent US11254717B2, “Antimicrobial peptide Sparamosin from Scylla paramamosain and application thereof” (priority 2018, dated 2022).
≈ marks a conversion by molar mass, not a printed value. Ends that are not written are not given here. Peptide text beside a SMILES is read from it.

Key:
[1] = test system: Bacillus cereus
[2] = test system: Staphylococcus aureus
[3] = test system: Pseudomonas fluorescens
[4] = test system: Escherichia coli
[5] = test system: Cryptococcus neoformans
[6] = test system: Pichia pastoris (GS115)
[7] = test system: normal human liver cell line (L02 cell line); test: Cytotoxicity, MTS-PMS assay; type: cell-based; conditions: normal cultured human hepatocytes
Protocol: (§1) The cytotoxicity effect of synthetic Sparamosin26-54 was evaluated using normal mouse liver cell line (AML12 cell line) and normal human liver cell line (L02 cell line).
(§2) (1) AML12 or L02 cells were harvested, and the cell concentration was adjusted to 10^5 cells/mL.
(§3) (2) 100 μL of AML12 or L02 cells were seeded in 96-wells and incubated at 37° C.
(§4) (3) Cells were treated with different concentrations of Sparamosin26-54 (0, 0.1, 1, 10, 100 μg/mL) for 24 h at 37° C.
(§5) (4) Cells were treated with 20 μL of MTS-PMS reagent for another 2 hours, and then the absorbance value of each well was measured at 492 nm (see FIG. 4).

[8] = test system: normal mouse liver cell line (AML12 cell line); test: Cytotoxicity, MTS-PMS assay; type: cell-based; conditions: normal cultured mouse hepatocytes
Protocol: as §1, §2, §3, §4, §5

[9] = test system: Corynebacterium glutamicum
[10] = test system: Pseudomonas aeruginosa
[11] = test system: Candida albicans
[12] = test system: Aspergillus niger
[13] = test system: Aspergillus flavus
[14] = test system: Fusarium oxysporum
[15] = test system: Aspergillus ochraceus
[16] = test system: Aspergillus fumigatus
[17] = test system: Neurospora crasa
[18] = test system: various Gram-positive bacteria and Gram-negative bacteria
[19] = test system: various molds

Row | Molecule | MBC: minimum bactericidal concentration [1] [µM] | MIC: minimum inhibitory concentration [1] [µM] | MBC: minimum bactericidal concentration [2] [µM] | MIC: minimum inhibitory concentration [2] [µM] | MBC: minimum bactericidal concentration [3] [µM] | MIC: minimum inhibitory concentration [3] [µM] | MBC: minimum bactericidal concentration [4] [µM] | MIC: minimum inhibitory concentration [4] [µM] | MBC: minimum bactericidal concentration [5] [µM] | MIC: minimum inhibitory concentration [5] [µM] | MBC: minimum bactericidal concentration [6] [µM] | MIC: minimum inhibitory concentration [6] [µM] | further results
1 | APVPDPDSEQSNISEVLKVQHSIFSGLGPNPCRKKCYKRDFLGRCRLNFTCMFG (cysteines drawn unpaired) [Sparamosin] | >48 | 24 to 48 | 48 | 12 to 24 | 24 | 12 to 24 | 24 | 12 to 24 | >48 | >48 | 24 | 6 to 12 | –
2 | CSCC[C@H](NC(=O)[C@H](CS)NC(=O)[C@@H](NC(=O)[C@H](Cc1ccccc1)NC(=O)[C@H](CC(N)=O)NC(=O)[C@H](CC(C)C)NC(=O)[C@H](CCCNC(=N)N)NC(=O)[C@H](CS)NC(=O)[C@H](CCCNC(=N)N)NC(=O)CNC(=O)[C@H](CC(C)C)NC(=O)[C@H](Cc1ccccc1)NC(=O)[C@H](CC(=O)O)NC(=O)[C@H](CCCNC(=N)N)NC(=O)[C@H](CCCCN)NC(=O)[C@H](Cc1ccc(O)cc1)NC(=O)[C@H](CS)NC(=O)[C@H](CCCCN)NC(=O)[C@H](CCCCN)NC(=O)[C@H](CCCNC(=N)N)NC(=O)[C@H](CS)NC(=O)[C@@H]1CCCN1C(=O)[C@H](CC(N)=O)NC(=O)[C@@H]1CCCN1C(=O)CNC(=O)[C@H](CC(C)C)NC(=O)CN)[C@@H](C)O)C(=O)N[C@@H](Cc1ccccc1)C(=O)NCC(=O)O [Sparamosin26-54] (H-GLGPNPCRKKCYKRDFLGRCRLNFTCMFG-OH; N-terminus and C-terminus assumed) | 24 (≈ 81.2 µg/mL) | 6 to 12 | 12 (≈ 40.6 µg/mL) | 3 to 6 | 6 (≈ 20.3 µg/mL) | 3 to 6 | 12 (≈ 40.6 µg/mL) | 6 to 12 | 12 (≈ 40.6 µg/mL) | 1.5 to 3 | 3 (≈ 10.1 µg/mL) | 1.5 to 3 | cytotoxic effect [7]: no cytotoxic effect; cytotoxic effect [8]: no cytotoxic effect; MBC: minimum bactericidal concentration [9]: 6 µM (≈ 20.3 µg/mL); MIC: minimum inhibitory concentration [9]: 1.5 to 3 µM; MBC: minimum bactericidal concentration [10]: 12 µM (≈ 40.6 µg/mL); MIC: minimum inhibitory concentration [10]: 6 to 12 µM; MBC: minimum bactericidal concentration [11]: >48 µM; MIC: minimum inhibitory concentration [11]: >48 µM; MBC: minimum bactericidal concentration [12]: 24 µM (≈ 81.2 µg/mL); MIC: minimum inhibitory concentration [12]: 6 to 12 µM; MBC: minimum bactericidal concentration [13]: >48 µM; MIC: minimum inhibitory concentration [13]: >48 µM; MBC: minimum bactericidal concentration [14]: 12 µM (≈ 40.6 µg/mL); MBC: minimum bactericidal concentration [15]: 48 µM (≈ 162 µg/mL); MIC: minimum inhibitory concentration [15]: 3 to 6 µM; MBC: minimum bactericidal concentration [16]: 24 µM (≈ 81.2 µg/mL); MIC: minimum inhibitory concentration [16]: 12 to 24 µM; MBC: minimum bactericidal concentration [17]: 48 µM (≈ 162 µg/mL); minimum inhibitory concentration (MIC) value [18]: 3 to 12 µM; MIC value [19]: 6 to 24 µM
